The values that follow come from ChEMBL document CHEMBL1201862, “PubChem BioAssay data set” (2004).

Structures are written as SMILES.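 All cell lines were grown in 96-well plates and treated with compound for 48 hours. The concentration for 50% growth inhibition is given as GI50.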 Calls of active or inactive are those of the source. Cut-off read from the data, not from the text of the source: active = GI50 up to about 1.1 µM and inactive = higher. Some results are limits rather than exact numbers.

What all share (experiment): DTP human tumour cell line panel, 48 h
For test [1], the system named is HOP-62.
Test [2] relates to NCI-H522.
For test [3], the system named is MCF7.
The test system of test [4] is OVCAR-8.
Test [5] relates to OVCAR-5.
For test [6], the system named is SK-MEL-5.
The test system of test [7] is MDA-MB-231.
Test [8] relates to NCI/ADR-RES.
In test [9] the test system is A549.
Test [10] deals with SK-MEL-28.
Test [11] has as its system SW-620.
The subject of test [12] is UACC-257.
Test [13] deals with SK-OV-3.
The test system of test [14] is DU-145.
Test [15] concerns SF-539.
In test [16] the test system is IGROV-1.
The subject of test [17] is SR.
For test [18], the system named is SNB-19.
Test [19] has as its system U-251.
Test [20] relates to HT-29.

As to `O=C(O)C[S+]([O-])c1ccc2c3c(cccc13)C(=O)c1ccccc1-2` (stereo not given), the GI50 in [1], in test [2], in test [3], in test [4], in [5] and in test [6] was > 100 µM (inactive) throughout. The GI50 in test [7], in test [8], in test [9], in test [10], in test [11] and in [12] was > 100 µM (inactive) each time. The GI50 in [13], in [14], in test [15], in test [16], in test [17] and in test [18] was > 100 µM (inactive) in each case. Moreover, the GI50 in test [19] and in test [20] was > 100 µM (inactive) each time.

Consider `CCn1c(=O)c2nc(SC)sc2n(-c2ccccc2)c1=S`, for which the GI50 in test [1] was > 100 µM (inactive); in [2], 79.3 µM (inactive); in test [3] it was 76.4 µM (inactive); in [4], 68.7 µM (inactive); in [5], > 100 µM (inactive); in test [6] it was 39.4 µM (inactive). For the same compound, the GI50 in test [7] is > 100 µM (inactive); in test [8], 44.5 µM (inactive); in test [9], 98.9 µM (inactive); in test [10], > 100 µM (inactive); in [11] it was 93.1 µM (inactive); in test [12] it was > 100 µM (inactive). Also, the GI50 was 94.6 µM (inactive) in test [13]; > 100 µM (inactive) in test [14]; 69.2 µM (inactive) in test [15]; > 100 µM (inactive) in test [16]; > 100 µM (inactive) in test [17]; 89.1 µM (inactive) in test [18]. In addition, the GI50 is > 100 µM (inactive) in test [19] and 47.2 µM (inactive) in test [20].

Regarding `CC(C)OC(=O)Nc1c([N+](=O)[O-])cc(C(F)(F)F)cc1[N+](=O)[O-]`, the GI50 was 93.3 µM (inactive) in [1]; > 95.7 µM (inactive) in test [2]; > 100 µM (inactive) in test [3]; 75.7 µM (inactive) in test [4]; > 100 µM (inactive) in [5]; > 100 µM (inactive) in test [6]. Also, the GI50 in [7] is 59.4 µM (inactive); in [8], > 100 µM (inactive); in test [9], > 100 µM (inactive); in [10], > 100 µM (inactive); in test [11], > 100 µM (inactive); in test [12], > 100 µM (inactive). The GI50 in [13] was 40.3 µM (inactive); in test [14], > 100 µM (inactive); in test [15], 23.9 µM (inactive); in [16], > 66.7 µM (inactive); in test [17], > 67.5 µM (inactive); in test [18], 41.1 µM (inactive). For the same compound, the values for the GI50 in test [19] and in test [20] were 97.9 µM (inactive) and > 100 µM (inactive), respectively.

Turning to `C=CC(C)(C)N[C@@H](C(=O)N1CCC[C@H]1c1nc(-c2nc(C(=O)OCC=C(C)C)c(C)o2)c(C)o1)C(C)C`, the GI50 was 21.6 µM (inactive) in [1]; 16.9 µM (inactive) in test [2]; 23.4 µM (inactive) in [3]; 23.4 µM (inactive) in test [4]; 35.9 µM (inactive) in test [5]; 22.3 µM (inactive) in [6]. The GI50 in [7] is 21.3 µM (inactive); in test [8] it was 22.6 µM (inactive); in test [9], 29.9 µM (inactive); in test [10], 18.5 µM (inactive); in [11] it was 22.3 µM (inactive); in [12], 20.5 µM (inactive). The GI50 in [13] is 27.1 µM (inactive); in test [14] it was 17.2 µM (inactive); in test [15], 16.3 µM (inactive); in test [16] it was 28.8 µM (inactive); in [17], 18.1 µM (inactive); in test [18], 19.7 µM (inactive). The GI50 was 21.1 µM (inactive) in test [19] and 19.1 µM (inactive) in test [20].

With `COc1ccc(C2C(C(=O)c3ccccc3)=C(O)C(O)(CC(=O)c3ccccc3)N2c2ccc(OC)cc2)cc1` (stereo not given), the GI50 in test [1] is 18.8 µM (inactive); in test [2], 4.35 µM (inactive); in [3] it was 11.9 µM (inactive); in test [4], 10.4 µM (inactive); in test [5] it was 23.6 µM (inactive); in [6] it was 9.57 µM (inactive). Also, the GI50 in test [7] was 19.2 µM (inactive); in test [8] it was 12.5 µM (inactive); in test [9], 22.4 µM (inactive); in test [10], 28.6 µM (inactive); in [11], 9.08 µM (inactive); in [12] it was 7.94 µM (inactive). Further, the GI50 in [13] is 25.2 µM (inactive); in test [14], 38.4 µM (inactive); in test [15], 24.4 µM (inactive); in test [16], 21.9 µM (inactive); in [17], 4.66 µM (inactive); in test [18] it was 12.2 µM (inactive). The GI50 was 8.09 µM (inactive) in [19] and 19.3 µM (inactive) in test [20].

In the case of `CCCCCCCCCCCC(=O)N(CCCCCCCCCCC(=O)O)CC(O)C(O)C(OC1OC(CO)C(O)C(O)C1O)C(O)CO` (stereo not given), the GI50 in [1], in [2], in test [3], in [4], in test [5] and in test [6] was > 100 µM (inactive) throughout. The GI50 in test [7], in test [8], in test [9], in test [10], in test [11] and in [12] was > 100 µM (inactive) in each case. The GI50 in [13], in [14], in [15], in [16], in test [17] and in test [18] was > 100 µM (inactive) in each case. For the same compound, the GI50 in [19] and in test [20] was > 100 µM (inactive) throughout.

`CC(=O)OC(C)c1cc2c(s1)C(=O)c1scc(C(C)OC(C)=O)c1C2=O` (stereo not given): the GI50 was 0.191 µM (active) in [1]; 0.215 µM (active) in [2]; 0.251 µM (active) in test [3]; 0.24 µM (active) in test [4]; 0.57 µM (active) in [5]; 0.0653 µM (active) in test [6]. Also, the 50% growth inhibitory concentration (GI50) in test [7] was 0.473 µM (active); in test [8], 0.255 µM (active); in test [9], 0.363 µM (active); in test [10], 0.226 µM (active); in test [11], 0.298 µM (active); in [12], 0.174 µM (active). Besides, the GI50 in [13] is 2.16 µM (inactive); in test [14] it was 0.178 µM (active); in [15], 0.175 µM (active); in [16], 0.662 µM (active); in [17], 0.21 µM (active); in test [18], 0.201 µM (active). Moreover, the 50% growth inhibitory concentration (GI50) was 0.25 µM (active) in test [19] and 0.391 µM (active) in test [20].

Broadly, the GI50 is the concentration giving 50% growth inhibition.
